Legend:
[1] = system: Pan T cells isolated from C57BL6 splenocytes; assay: T cell activation assay (flow cytometry, CD25/CD69 on CD8 T cells); assay type: cell-based, mouse; settings: for % CD25 within CD8+ / % CD69 within CD8+ / CD25 MFI / CD69 MFI: 30 μM compound, 2 days; for T cell activation and T cell function: with TCR stimulation
Description: Pan T cells were isolated from C57BL6 splenocytes using a MACS Pan T cell isolation kit II (Miltenyi Biotec, Auburn, Calif.) according to the manufacturer's instructions. Isolated T cells (200,000 cells/well in a 96 well flat-bottom plate) were cultured in RPMI 1640 supplemented with 10% FBS, […] 2-mercatoethanol, 100 U/mL penicillin, and 100 μg/mL streptomycin, and incubated with the indicated concentration of compound or DMSO in duplicates. After 1 hour, mouse T cell activator CD3/CD28 Dynabeads (ThermoFisher Scientific, Waltham, Mass.) were added at a 1:5 beads to cells ratio to stimulate the T cells for 2 or 3 days as outlined below. T cells with or without compound were incubated in the absence of T cell activator beads (media only) as control.
After 2 days of stimulation, activation status of T cells was assessed by flow cytometry. T cells were first subjected to Zombie Violet™ Fixable Viability dye (BioLegend, San Diego, Calif.) for dead cell exclusion, washed and then stained with BUV805 labeled anti-CD8, APC-R700 labeled anti-CD25 (both from BD Biosciences, San Jose, Calif.) and PE labeled anti-CD69 (BioLegend, San Diego, Calif.) antibodies. After staining, cells were fixed with 2% paraformaldehyde and acquired on a BD LSRFortessa™ X-20 flow cytometer (BD Biosciences, San Jose, Calif.) using BD FACSDiva™ software. Data was analyzed using FlowJo V10 (Flow Jo LLC, Ashland, Oreg.). Dead cells were excluded and frequencies of activated CD8 T cells was reported as the frequency of CD25+ or CD69+ cells within the CD8+ population. The expression level of CD25 and CD69 indicates the activation status of cells on a per cell basis and was evaluated by the mean fluorescence intensities (MFI) of CD25 and CD69.

[2] = system: MC-38 murine colon adenocarcinoma; assay: In vivo efficacy in MC38 tumor model; settings: for mice that achieved complete cures / tolerability / Tumor Growth Inhibition (Max) compared to vehicle [%]: 300 mg/kg/dose oral BID for 21 days; for Tumor Growth Inhibition (Max) compared to vehicle [%]: C57Bl/6 mice, TGIMax over the entirety of the study; for tumor response observed: within 7-10 days of treatment
Description: All experiments were conducted in compliance with AbbVie's Institutional Animal Care and Use Committee and the National Institutes of Health Guide for Care and Use of Laboratory Animals guidelines in a facility accredited by the Association for the Assessment and Accreditation of Laboratory Animal Care. C57Bl/6 female mice were obtained from Charles River (Wilmington, Mass.). The mice were group-housed 10 per cage. Food and water were available ad libitum. Animals were acclimated to the animal facilities for a period of at least one week prior to commencement of experiments. Animals were tested in the light phase of a 12-hour light:12-hour dark schedule (lights on 0600 hours).
Cells were grown to passage 3 in vitro. A total of 1×10^5 viable MC-38 cells were inoculated subcutaneously into the right flank of female C57Bl/6 mice (7-12 weeks old) on Day 0. The injection volume was 0.1 mL and was composed of a 1:1 mixture of S-MEM and Matrigel® (Corning, N.Y., USA). […] The mean tumor volume (TV) at size match was approximately 116±8 mm^3. Following size match, treatments were initiated on the same day. […] Compound 124 was formulated in 5% DMSO, 5% Tween 80 (Polysorbate 80), 20% PEG-400 and 70% D5W (5% dextrose in water) and was dosed at 10 mL/kg. […] Tumor volume was calculated three times weekly. Measurements of the length (L) and width (W) of the tumor were taken via electronic caliper and the volume was calculated according to the following equation: V=L×W^2/2 using Study Director Version 3.1.399.22 (Studylog Systems, Inc, CA, USA). Mice were euthanized when tumor volume was […] or skin ulcerations occurred. […] Reported TGIMax is the largest TGI value for any timepoint that tumors volumes were collected for that treatment group.

[3] = system: pSTAT5 in CD3+ T cells; assay: pSTAT5 flow cytometry assay in mouse whole blood; assay type: in vivo; settings: 300 mg/kg/dose oral BID; day 8 of dosing, 2 hours post 16th dose; 100 ng/mL murine IL-2
Description: Whole blood was drawn into EDTA powder coated tubes by cardiac puncture from mice on day 8 of dosing with indicated PTPN2/1B inhibitor (2 hours after the 16th dose). 100 μL of whole blood were stimulated with 100 ng/mL murine IL-2 (R&D Systems, Minneapolis, Minn., cat #402-ML) for 20 minutes at 37° C., 5% CO2. After stimulation, 1.8 mL of prewarmed BD Phosflow Lyse/Fix Buffer (BD Biosciences, San Jose, Calif.) was added for 20 minutes at 37° C. Cells were washed twice in FACS buffer (Dulbecco's PBS with 0.2% BSA) and incubated for 30 minutes on ice in cold Perm Buffer III (BD Biosciences, San Jose, Calif.). Cells were washed with FACS buffer and resuspended in […] of FACS buffer with antibodies and stained for 3 hours at room temperature with gentle shaking. […] After staining, cells were washed twice with FACS buffer, and the samples were acquired on a BD LSRFortessa™ X20 flow cytometers (BD Biosciences, San Jose, Calif.) and analyzed with FLowJo V10 software (FlowJo, Ashland, Oreg.). The mean fluorescence intensity (MFI) of pSTAT5 as a measure of the amount of phosphorylated STAT5 in the CD3+ T cell population was reported as fold-change of compound treated over vehicle treated animal groups.

[4] = system: Granzyme B+ cells within CD8+ T cells; assay: Granzyme B staining of CD8 T cells flow cytometry assay in mouse spleen; assay type: in vivo; settings: 300 mg/kg/dose oral BID; day 8 of dosing, 2 hours post 16th dose
Description: Mice were sacrificed on day 8 of dosing with indicated PTPN2/1B inhibitor (2 hours after the 16th dose) and spleens were excised. Spleens were dissociated with a gentleMACS dissociator (Miltenyi Biotec, Bergisch Gladbach, Germany), red blood cells lysed, and single cell suspensions were prepared. Splenocytes were stained with Zombie UV™ Fixable Viability kit (Biolegend, San Diego, Calif.) diluted in Dulbecco's PBS for 10 minutes at room temperature to exclude dead cells followed by staining for surface markers for 45 minutes on ice using the following flow cytometry antibodies diluted in autoMACS Running Buffer (Miltenyi Biotec, Bergisch Gladbach, Germany): Brilliant Violet 510-labeled anti-CD45, Brilliant Ultraviolet 395-labeled anti-CD3, Brilliant Violet 786-labeled anti-CD4, APC/Cy7-labeled anti-CD8. […] After staining, cells were washed twice with autoMACS Running Buffer, and the samples were acquired on a BD LSRFortessa™ X20 flow cytometers (BD Biosciences, San Jose, Calif.) and analyzed with FLowJo V10 software (FlowJo, Ashland, Oreg.). […]

[5] = system: IP10; assay: Cytokine measurement in mouse plasma (IP10); assay type: in vivo; settings: 300 mg/kg/dose oral BID; day 8 of dosing, 2 hours post 16th dose
Description: Whole blood was drawn into sodium heparin by cardiac puncture from mice on day 8 of dosing with indicated PTPN2/1B inhibitor (2 hours after the 16th dose) and plasma was prepared by centrifugation. Cytokines in plasma were measured using the Th1/Th2 Cytokine & Chemokine 20-Plex Mouse ProcartaPlex™ Panel 1 (Invitrogen, Carlsbad, Calif.). IP10 levels were expressed as fold-changes over the vehicle control animal group.

[6] = anti-CD3/anti-CD28 Dynabeads (1:5 beads:cells)

Compound | % CD25 within CD8+ [1, 6] [%] | % CD69 within CD8+ [1, 6] [%] | CD25 MFI [1, 6] | CD69 MFI [1, 6] | % CD25 within CD8+ ([1]; no TCR stimulation) [%] | % CD69 within CD8+ ([1]; no TCR stimulation) [%] | CD25 MFI ([1]; no TCR stimulation) | CD69 MFI ([1]; no TCR stimulation) | T cell activation and T cell function [1] | mice that achieved complete cures [2] [%] | tolerability [2] | Tumor Growth Inhibition (Max) compared to vehicle [%] [2] [%] | tumor response observed [2] | pSTAT5 level in CD3+ T cells from IL2 stimulated whole blood [fold increase over vehicle] [3] [fold] | % GzB+ cells within splenic CD8+ T cells [fold change over vehicle] [4] [fold] | IP10 in plasma [fold increase over vehicle] [5] [fold]
CC(C)(O)CCOc1ccc2cc(O)c(N3CC(=O)NS3(=O)=O)c(F)c2c1 [Compound 182, 5-[1-fluoro-3-hydroxy-7-(3-hydroxy-3-methylbutoxy)naphthalen-2-yl]-1λ^6,2,5-thiadiazolidine-1,1,3-trione] | 29.20 | 61.90 | 741 | 1601.5 | 1.17 | 0.45 | 72.4 | 18.3 | increased both T cell activation and T cell function | 50 | well tolerated, without obvious adverse health events | 94 | apparent tumor stasis and shrinkage | – | – | –
COc1ccc2cc(O)c(N3CC(=O)NS3(=O)=O)c(F)c2c1 [Compound 124, 5-(1-fluoro-3-hydroxy-7-methoxynaphthalen-2-yl)-1λ^6,2,5-thiadiazolidine-1,1,3-trione] | 32.55 | 61.90 | 846.5 | 1421.5 | 0.39 | 0.23 | 57.05 | 28.1 | increased both T cell activation and T cell function | 50 | well tolerated, without obvious adverse health events | 75 | apparent tumor stasis and shrinkage | 2.3 | 2.9 | 2.5

Source: US20210009542A1 (Calico Life Sciences LLC, priority 2018, published 2021)
